# In ChEMBL document CHEMBL3132769, “Fragment growing to retain or alter the selectivity of anchored kinase hinge-binding fragments” (Medchemcomm, 2014):
# What was measured:
# [1] = target: T1, Mitogen-activated protein kinase 13 (Homo sapiens) (UniProt O15264); experiment: Inhibition of human full length p38 delta expressed in Escherichia coli cell assessed as substrate phosphorylation using fluorescence-labelled peptides as substrate at 0.2 uM after 90 mins by microfluidic peptide phosphorylation assay
# T1 sequence (whole entry): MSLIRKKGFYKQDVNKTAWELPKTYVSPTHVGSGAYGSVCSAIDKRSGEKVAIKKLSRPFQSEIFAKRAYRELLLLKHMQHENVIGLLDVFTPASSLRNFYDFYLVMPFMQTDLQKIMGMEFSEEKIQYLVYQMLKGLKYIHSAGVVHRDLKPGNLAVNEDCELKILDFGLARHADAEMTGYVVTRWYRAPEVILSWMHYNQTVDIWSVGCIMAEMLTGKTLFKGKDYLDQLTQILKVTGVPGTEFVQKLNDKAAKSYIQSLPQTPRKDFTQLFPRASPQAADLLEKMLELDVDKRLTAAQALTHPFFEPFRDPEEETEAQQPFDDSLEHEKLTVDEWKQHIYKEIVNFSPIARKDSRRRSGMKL
# [2] = target: T2, Serine/threonine-protein kinase D2 (Homo sapiens) (UniProt Q9BZL6); experiment: Inhibition of human full length PKD2 expressed in baculovirus assessed as substrate phosphorylation using fluorescence-labelled peptides as substrate at 8 uM after 90 mins by microfluidic peptide phosphorylation assay
# T2 sequence (whole entry): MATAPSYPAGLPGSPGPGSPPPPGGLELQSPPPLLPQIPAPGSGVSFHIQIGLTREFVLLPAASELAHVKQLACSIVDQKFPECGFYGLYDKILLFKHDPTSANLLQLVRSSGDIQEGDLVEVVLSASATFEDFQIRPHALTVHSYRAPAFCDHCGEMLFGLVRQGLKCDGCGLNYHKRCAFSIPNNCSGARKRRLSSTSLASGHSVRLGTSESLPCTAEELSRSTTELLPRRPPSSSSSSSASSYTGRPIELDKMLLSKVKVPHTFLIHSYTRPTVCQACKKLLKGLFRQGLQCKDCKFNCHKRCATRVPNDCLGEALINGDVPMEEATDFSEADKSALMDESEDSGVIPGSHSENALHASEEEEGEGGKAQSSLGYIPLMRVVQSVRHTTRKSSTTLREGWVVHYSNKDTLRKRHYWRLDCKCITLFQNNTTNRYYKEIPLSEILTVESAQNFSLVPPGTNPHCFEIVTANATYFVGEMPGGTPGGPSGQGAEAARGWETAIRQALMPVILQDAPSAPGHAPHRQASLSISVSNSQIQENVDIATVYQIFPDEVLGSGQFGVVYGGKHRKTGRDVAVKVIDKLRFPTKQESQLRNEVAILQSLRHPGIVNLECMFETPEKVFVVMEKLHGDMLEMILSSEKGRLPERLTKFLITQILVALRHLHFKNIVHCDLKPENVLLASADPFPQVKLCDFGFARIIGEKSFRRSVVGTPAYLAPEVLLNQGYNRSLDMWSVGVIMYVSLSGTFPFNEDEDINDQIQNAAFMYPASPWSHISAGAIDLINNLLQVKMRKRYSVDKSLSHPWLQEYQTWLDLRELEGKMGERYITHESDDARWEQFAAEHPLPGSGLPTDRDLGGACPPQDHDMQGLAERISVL
# [3] = target: Tyrosine-protein kinase ABL2 (Homo sapiens) (UniProt P42684); experiment: Inhibition of human truncated Arg expressed in baculovirus assessed as substrate phosphorylation using fluorescence-labelled peptides as substrate at 0.1 uM after 90 mins by microfluidic peptide phosphorylation assay
# Chain of Tyrosine-protein kinase ABL2 (Homo sapiens) (P42684 whole entry, the tested form may be a part): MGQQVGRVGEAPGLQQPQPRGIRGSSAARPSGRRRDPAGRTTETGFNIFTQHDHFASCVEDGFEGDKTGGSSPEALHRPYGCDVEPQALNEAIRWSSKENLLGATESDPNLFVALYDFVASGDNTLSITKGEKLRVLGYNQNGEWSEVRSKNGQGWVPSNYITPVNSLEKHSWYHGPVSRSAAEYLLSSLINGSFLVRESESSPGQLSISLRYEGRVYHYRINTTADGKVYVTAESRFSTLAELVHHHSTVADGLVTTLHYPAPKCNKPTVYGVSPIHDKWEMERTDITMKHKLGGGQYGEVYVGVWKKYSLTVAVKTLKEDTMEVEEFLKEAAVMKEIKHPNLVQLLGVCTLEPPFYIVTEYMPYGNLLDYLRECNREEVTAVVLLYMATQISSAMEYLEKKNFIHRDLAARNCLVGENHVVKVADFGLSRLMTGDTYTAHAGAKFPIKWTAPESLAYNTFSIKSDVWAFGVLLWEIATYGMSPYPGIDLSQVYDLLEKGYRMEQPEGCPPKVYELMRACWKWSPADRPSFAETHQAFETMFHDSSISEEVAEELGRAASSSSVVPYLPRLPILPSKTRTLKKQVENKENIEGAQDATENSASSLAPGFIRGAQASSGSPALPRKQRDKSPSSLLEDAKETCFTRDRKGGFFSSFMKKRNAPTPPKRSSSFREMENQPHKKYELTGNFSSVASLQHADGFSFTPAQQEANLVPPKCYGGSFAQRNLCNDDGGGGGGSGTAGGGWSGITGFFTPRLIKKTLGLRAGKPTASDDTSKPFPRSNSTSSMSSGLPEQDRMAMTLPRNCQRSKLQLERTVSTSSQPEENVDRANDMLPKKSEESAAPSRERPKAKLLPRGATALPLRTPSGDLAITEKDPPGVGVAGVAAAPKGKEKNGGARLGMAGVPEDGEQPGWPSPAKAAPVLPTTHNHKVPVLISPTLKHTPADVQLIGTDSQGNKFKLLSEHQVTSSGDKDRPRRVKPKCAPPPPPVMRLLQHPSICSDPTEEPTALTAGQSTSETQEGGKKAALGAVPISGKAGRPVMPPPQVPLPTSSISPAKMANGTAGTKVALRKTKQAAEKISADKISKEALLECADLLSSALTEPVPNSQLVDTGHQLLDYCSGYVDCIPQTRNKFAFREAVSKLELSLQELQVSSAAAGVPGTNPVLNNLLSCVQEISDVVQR
# [4] = target: Protein kinase C beta type (Homo sapiens) (UniProt P05771); experiment: Inhibition of human truncated PKC beta1 expressed in baculovirus assessed as substrate phosphorylation using fluorescence-labelled peptides as substrate at 420 uM after 90 mins by microfluidic peptide phosphorylation assay
# Chain of Protein kinase C beta type (Homo sapiens) (P05771 2-671 limits assumed): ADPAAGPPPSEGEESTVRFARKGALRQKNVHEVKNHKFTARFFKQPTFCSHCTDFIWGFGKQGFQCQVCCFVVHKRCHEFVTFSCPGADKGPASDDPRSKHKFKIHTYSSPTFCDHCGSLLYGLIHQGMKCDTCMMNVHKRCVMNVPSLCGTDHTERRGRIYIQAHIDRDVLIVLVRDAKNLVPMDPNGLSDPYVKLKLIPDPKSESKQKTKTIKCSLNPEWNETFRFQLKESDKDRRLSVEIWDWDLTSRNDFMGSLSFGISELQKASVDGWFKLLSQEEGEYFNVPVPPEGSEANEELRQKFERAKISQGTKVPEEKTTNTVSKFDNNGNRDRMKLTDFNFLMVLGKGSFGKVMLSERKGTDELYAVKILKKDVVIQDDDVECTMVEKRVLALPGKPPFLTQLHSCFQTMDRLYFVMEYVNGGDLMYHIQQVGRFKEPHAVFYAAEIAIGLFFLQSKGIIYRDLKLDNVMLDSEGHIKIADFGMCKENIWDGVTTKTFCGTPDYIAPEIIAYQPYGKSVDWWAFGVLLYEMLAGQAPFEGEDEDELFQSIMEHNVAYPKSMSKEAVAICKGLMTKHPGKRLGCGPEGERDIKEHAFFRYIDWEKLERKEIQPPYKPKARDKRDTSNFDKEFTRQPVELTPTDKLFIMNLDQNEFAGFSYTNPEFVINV
# [5] = target: Calcium/calmodulin-dependent protein kinase type II subunit gamma (Homo sapiens) (UniProt Q13555); experiment: Inhibition of human CAMK2 gamma catalytic domain expressed in baculovirus assessed as substrate phosphorylation using fluorescence-labelled peptides as substrate at 9 uM after 90 mins by microfluidic peptide phosphorylation assay
# Chain of Calcium/calmodulin-dependent protein kinase type II subunit gamma (Homo sapiens) (Q13555 whole entry, the tested form may be a part): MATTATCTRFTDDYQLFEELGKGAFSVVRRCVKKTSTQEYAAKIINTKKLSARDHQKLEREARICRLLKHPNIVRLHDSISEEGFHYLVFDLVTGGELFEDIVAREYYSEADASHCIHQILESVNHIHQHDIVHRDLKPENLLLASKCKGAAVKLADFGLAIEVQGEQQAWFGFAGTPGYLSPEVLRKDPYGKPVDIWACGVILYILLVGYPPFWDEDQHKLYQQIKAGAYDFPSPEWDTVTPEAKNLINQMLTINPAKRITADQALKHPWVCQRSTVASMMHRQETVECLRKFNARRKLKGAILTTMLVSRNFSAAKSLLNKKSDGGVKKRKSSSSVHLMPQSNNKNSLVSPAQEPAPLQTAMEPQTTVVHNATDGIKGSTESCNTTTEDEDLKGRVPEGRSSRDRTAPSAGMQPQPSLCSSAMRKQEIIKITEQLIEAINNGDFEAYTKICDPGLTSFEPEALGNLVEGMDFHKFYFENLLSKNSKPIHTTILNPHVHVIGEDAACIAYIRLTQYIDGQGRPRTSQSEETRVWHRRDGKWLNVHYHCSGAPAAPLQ
# [6] = target: Epidermal growth factor receptor (Homo sapiens) (UniProt P00533); experiment: Inhibition of human EGFR catalytic domain expressed in baculovirus assessed as substrate phosphorylation using fluorescence-labelled peptides as substrate at 9 uM after 90 mins by microfluidic peptide phosphorylation assay
# Chain of Epidermal growth factor receptor (Homo sapiens) (P00533 whole entry, the tested form may be a part): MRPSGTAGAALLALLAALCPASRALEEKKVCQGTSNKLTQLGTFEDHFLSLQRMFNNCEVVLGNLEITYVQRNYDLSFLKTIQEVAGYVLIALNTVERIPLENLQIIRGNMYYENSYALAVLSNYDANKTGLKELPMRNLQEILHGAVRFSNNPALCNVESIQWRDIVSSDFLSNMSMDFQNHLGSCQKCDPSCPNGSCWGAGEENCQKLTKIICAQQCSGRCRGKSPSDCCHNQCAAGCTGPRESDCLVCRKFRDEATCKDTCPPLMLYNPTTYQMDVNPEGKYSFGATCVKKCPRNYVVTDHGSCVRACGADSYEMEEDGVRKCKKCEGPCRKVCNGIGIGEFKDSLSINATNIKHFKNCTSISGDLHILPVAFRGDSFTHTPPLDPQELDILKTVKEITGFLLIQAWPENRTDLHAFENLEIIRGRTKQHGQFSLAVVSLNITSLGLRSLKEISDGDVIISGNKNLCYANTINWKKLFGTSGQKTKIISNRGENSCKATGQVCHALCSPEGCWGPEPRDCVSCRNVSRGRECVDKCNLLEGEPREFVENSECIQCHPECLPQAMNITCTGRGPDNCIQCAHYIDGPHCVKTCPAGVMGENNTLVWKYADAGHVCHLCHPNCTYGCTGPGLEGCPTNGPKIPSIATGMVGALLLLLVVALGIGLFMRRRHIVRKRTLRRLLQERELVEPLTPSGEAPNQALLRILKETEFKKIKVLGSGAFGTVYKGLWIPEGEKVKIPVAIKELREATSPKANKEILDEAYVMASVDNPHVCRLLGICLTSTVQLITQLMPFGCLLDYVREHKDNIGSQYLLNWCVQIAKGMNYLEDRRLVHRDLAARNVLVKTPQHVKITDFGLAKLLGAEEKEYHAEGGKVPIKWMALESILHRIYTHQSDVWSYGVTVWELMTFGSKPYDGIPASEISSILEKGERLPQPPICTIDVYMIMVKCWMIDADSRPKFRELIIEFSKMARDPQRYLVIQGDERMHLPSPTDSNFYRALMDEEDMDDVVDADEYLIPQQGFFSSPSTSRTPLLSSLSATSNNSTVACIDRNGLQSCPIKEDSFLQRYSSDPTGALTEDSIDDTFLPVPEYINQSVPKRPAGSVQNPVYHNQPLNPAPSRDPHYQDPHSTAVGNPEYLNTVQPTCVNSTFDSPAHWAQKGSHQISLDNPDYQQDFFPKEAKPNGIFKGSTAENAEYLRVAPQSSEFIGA
# [7] = target: MAP/microtubule affinity-regulating kinase 3 (Homo sapiens) (UniProt P27448); experiment: Inhibition of human full length c-TAK1 expressed in Escherichia coli cell assessed as substrate phosphorylation using fluorescence-labelled peptides as substrate at 70 uM after 90 mins by microfluidic peptide phosphorylation assay
# Chain of MAP/microtubule affinity-regulating kinase 3 (Homo sapiens) (P27448 whole entry, looked up): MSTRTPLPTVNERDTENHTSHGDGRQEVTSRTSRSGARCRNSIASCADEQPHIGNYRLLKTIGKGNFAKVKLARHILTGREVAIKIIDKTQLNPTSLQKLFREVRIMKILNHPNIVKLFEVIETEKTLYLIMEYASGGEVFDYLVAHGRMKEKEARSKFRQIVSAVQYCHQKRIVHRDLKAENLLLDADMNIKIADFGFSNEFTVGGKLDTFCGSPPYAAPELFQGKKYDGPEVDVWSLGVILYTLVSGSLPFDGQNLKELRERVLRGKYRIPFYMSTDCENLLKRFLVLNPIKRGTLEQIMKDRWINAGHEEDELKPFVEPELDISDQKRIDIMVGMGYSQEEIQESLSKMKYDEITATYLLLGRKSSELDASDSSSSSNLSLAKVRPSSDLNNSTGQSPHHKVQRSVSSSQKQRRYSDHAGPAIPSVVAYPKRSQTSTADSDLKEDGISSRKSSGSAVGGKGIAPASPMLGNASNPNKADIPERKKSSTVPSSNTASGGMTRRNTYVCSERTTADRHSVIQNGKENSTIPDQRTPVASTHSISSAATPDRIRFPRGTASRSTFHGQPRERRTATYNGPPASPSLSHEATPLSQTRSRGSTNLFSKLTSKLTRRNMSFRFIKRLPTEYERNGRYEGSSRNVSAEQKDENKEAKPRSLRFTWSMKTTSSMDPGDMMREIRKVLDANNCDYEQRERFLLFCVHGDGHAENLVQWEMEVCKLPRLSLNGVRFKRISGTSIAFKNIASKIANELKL
# [8] = target: Calcium/calmodulin-dependent protein kinase type II subunit delta (Homo sapiens) (UniProt Q13557); experiment: Inhibition of human full length CAMK2D expressed in baculovirus assessed as substrate phosphorylation using fluorescence-labelled peptides as substrate at 70 uM after 90 mins by microfluidic peptide phosphorylation assay
# Chain of Calcium/calmodulin-dependent protein kinase type II subunit delta (Homo sapiens) (Q13557 whole entry): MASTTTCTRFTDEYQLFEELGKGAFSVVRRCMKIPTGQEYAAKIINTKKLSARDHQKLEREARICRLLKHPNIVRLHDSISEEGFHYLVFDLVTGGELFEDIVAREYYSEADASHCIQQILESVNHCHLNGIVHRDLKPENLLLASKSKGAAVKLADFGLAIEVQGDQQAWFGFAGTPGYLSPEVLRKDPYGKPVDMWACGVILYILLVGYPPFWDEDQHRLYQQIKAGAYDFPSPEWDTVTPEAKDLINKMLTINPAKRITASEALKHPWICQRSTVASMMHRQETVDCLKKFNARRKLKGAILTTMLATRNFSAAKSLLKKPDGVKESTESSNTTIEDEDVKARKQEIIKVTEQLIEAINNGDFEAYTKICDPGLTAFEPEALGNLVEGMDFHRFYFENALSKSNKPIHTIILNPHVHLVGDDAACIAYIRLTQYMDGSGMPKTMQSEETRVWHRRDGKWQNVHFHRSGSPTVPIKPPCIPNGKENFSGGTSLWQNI
# [9] = target: T3, Inhibitor of nuclear factor kappa-B kinase subunit beta (Homo sapiens) (UniProt O14920); experiment: Inhibition of human full length IKK beta expressed in baculovirus assessed as substrate phosphorylation using fluorescence-labelled peptides as substrate at 70 uM after 90 mins by microfluidic peptide phosphorylation assay
# T3 sequence (whole entry): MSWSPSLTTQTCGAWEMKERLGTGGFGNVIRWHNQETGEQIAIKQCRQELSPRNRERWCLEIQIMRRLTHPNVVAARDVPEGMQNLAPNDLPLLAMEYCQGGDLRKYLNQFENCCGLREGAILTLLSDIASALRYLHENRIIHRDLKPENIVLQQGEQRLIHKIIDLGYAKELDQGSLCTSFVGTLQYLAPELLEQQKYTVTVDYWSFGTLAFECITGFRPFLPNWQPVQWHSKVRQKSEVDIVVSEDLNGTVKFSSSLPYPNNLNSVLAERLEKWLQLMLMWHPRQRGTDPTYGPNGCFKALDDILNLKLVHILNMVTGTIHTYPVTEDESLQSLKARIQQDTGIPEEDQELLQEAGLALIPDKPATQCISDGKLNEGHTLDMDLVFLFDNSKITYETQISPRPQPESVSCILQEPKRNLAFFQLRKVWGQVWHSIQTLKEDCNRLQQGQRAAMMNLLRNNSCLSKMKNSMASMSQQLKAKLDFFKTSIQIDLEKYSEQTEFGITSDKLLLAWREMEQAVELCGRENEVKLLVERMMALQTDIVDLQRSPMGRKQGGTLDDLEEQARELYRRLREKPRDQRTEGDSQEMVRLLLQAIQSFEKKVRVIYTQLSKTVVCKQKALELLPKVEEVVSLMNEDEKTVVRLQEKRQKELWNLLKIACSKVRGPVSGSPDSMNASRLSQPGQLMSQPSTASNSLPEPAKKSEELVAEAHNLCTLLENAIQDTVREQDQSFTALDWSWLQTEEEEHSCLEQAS
# [10] = target: Mitogen-activated protein kinase 1 (Homo sapiens) (UniProt P28482); experiment: Inhibition of human full length ERK2 expressed in Escherichia coli cell assessed as substrate phosphorylation using fluorescence-labelled peptides as substrate at 70 uM after 90 mins by microfluidic peptide phosphorylation assay
compound,measurement,setting,value
Clc1ccc(C2(c3ccc(-c4ncnc5[nH]cnc45)cc3)CCNCC2)cc1,inhibition,[1],11%
NCC1CCN(c2ncnc3[nH]ccc23)CC1,inhibition,[2],28.5%
C[C@H](CN(C)C)Oc1nc(Nc2cc3cccc(Cl)c3cn2)cnc1C#N,inhibition,[3],1.5%
c1nc(N2CCOCC2)c2nc[nH]c2n1,inhibition,[4],70%
NCC1CN(c2ncnc3[nH]c4cnccc4c23)CCO1 (stereo not given),inhibition,[5],24%
same,inhibition,[6],12%
CNCc1ccc(-c2ncnc3[nH]cnc23)cc1,inhibition,[7],6.5%
same,inhibition,[8],17.5%
same,inhibition,[9],90.5%
same,inhibition,[10],29%
